Measurements: PMC6934184, “Selective DNA-PKcs inhibition extends the therapeutic index of localized radiotherapy and chemotherapy” (The Journal of Clinical Investigation, 2019)

Biological target: T1, ITK (Homo sapiens, UniProt Q08881)
T1 construct: purchased Thermo Fisher Scientific (Life Technologies) SelectScreen
Assay: SelectScreen Z'LYTE
Format: biochemical
In short: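 NU5455 was profiled across the SelectScreen Broad panel of kinase activity and binding assays. Z'LYTE reactions such as CSF1R ran at apparent Km ATP, while the Adapta CAMK1 assay used ATP listed as 10. Values are given as percent.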

T1 sequence (Q08881 whole entry): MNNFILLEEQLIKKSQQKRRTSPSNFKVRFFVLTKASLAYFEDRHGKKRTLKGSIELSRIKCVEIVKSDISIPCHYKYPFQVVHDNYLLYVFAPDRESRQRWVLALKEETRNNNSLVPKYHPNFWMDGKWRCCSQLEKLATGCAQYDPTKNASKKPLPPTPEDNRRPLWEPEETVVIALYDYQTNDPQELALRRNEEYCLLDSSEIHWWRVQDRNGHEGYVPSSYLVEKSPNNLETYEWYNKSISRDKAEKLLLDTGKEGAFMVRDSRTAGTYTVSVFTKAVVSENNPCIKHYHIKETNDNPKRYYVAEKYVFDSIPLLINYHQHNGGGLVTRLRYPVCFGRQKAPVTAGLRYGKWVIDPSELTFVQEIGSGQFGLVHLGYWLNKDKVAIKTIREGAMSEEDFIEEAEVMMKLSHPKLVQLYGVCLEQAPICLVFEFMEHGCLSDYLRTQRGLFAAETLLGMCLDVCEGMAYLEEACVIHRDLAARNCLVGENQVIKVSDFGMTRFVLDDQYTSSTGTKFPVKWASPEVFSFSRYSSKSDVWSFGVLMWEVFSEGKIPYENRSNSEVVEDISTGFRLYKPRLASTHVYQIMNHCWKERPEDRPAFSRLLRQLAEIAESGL

## CN(C(=O)CN1CCOCC1)c1ccc2sc3c(-c4cccc5c(=O)cc(N6CC7CCC(C6)O7)oc45)cccc3c2c1 [NU5455]
  inhibition at 1 µM: 5.5%
